Tests used:
Type in all cases: physicochemical
[1] = T1 relaxivity (r1) by inversion recovery on Bruker mq60 Minispec, 1.4 T, 37° C., TRIS buffer pH 7.4
Description: (§1) Liquid chromatography-electrospray mass spectrometry (LC-MS) was performed using an Agilent 1100 Series apparatus with an LC/MSD trap and Daly conversion dynode detector with UV detection at 220, 254 and 280 nm. The methods used on this system are as follows: (a) Luna C18 column (100×2 mm); eluent A: H2O/0.1% formic acid, B: MeCN/0.1% formic acid; gradient: 5% B to 95% B over 9 minutes; flow rate 0.8 mL/min (used for characterization of organic compounds), and (b) Kromasil C18 column (250×4.6 mm); eluent C: 95% MeCN/5% 10 mM ammonium acetate, D: 10 mM ammonium acetate; gradient 5% C to 8% C over 14 minutes; flow rate 0.8 ml/min (used for characterization of manganese complexes). Reversed-phase semipreparative purification was performed on a Rainin Dynamax HPLC system with UV detection at 254 nm using a Polaris C18 column. The method used for purification is as follows: The mobile phase A was 50 mM ammonium acetate buffer, pH 6.5 and mobile phase B was a mixture of 5% 50 mM ammonium acetate buffer, pH 6.5/95% MeCN. Starting from 5% B, the fraction of B increased to 8% over 23 minutes. The column was washed with 100% B for 2 minutes and then ramped to 5% B. The system was re-equilibrated at 5% B for 3 minutes. Relaxivity measurements were performed on a Bruker mq60 Minispec at 1.4 T and 37° C. Manganese concentrations were determined using an Agilent 7500a ICP-MS system. All samples were diluted with 0.1% Triton X-100 in 5% nitric acid containing 20 ppb of Lu (as internal standard). The ratio of Mn (54.94)/Lu(174.97) was used to quantify the manganese concentration. A linear calibration curve ranging from 0.1 ppb to 200 ppb was generated daily for the quantification. UV-Vis spectra were recorded on a SpectraMax M2 spectrophotometer using quartz cuvette with a 1 cm path length. Cyclic voltammetry of Mn^IIHBET, Mn^IIEDTA and Mn^IIIHBET was recorded using a Nuvant EZstat pro potentiostat in TRIS buffer (pH=7.4), containing 0.5M KNO3 as supporting electrolyte, at 100 mVs-1 scan rate. Glassy carbon was used as the working electrode, Ag/AgCl served as the reference electrode and Pt wire was used as the auxiliary electrode. The K4FeCN6/K3FeCN6 couple was used as the internal standard.
T1 was measured with an inversion recovery pulse sequence taking 10 inversion times. Relaxivity was determined from the slope of a plot of 1/T1 vs. concentration of in TRIS buffer, pH=7.4 at 37° C. The concentration of manganese in each stock solution was determined using ICP-MS.
All chemicals and solvents were purchased commercially and used without further purification. NMR spectra were recorded on either a 500 MHz or 400 MHz Varian spectrometers. Chemical shifts are reported in δ (ppm). For ^1H and ^13C NMR spectra, the residual solvent peaks were used as internal reference, except for the ^13C NMR of the ligand where tertiary-butanol was used as the internal reference. Liquid chromatography-electrospray mass spectrometry (LC-MS) was performed using an Agilent 1100 Series apparatus with an LC/MSD trap and Daly conversion dynode detector with UV detection at 220, 254 and 280 nm. The methods used on this system are as follows: (a) Luna C18 column (100×2 mm); eluent A: H2O/0.1% formic acid, B: MeCN/0.1% formic acid; gradient: 5% B to 95% B over 9 minutes; flow rate 0.8 mL/min (used for characterization of organic compounds), and (b) Kromasil C18 column (250×4.6 mm); eluent C: 95% MeCN/5% 10 mM ammonium acetate, D: 10 mM ammonium acetate; gradient 5% C to 8% C over 14 minutes; flow rate 0.8 ml/min (used for characterization of manganese complexes). Reversed-phase semipreparative purification was performed on the Rainin Dynamax HPLC system with UV detection at 254 nm using a Polaris C18 column. The method used for purification is as follows: The mobile phase A was 50 mM ammonium acetate buffer, pH 6.5 and mobile phase B was a mixture of 5% 50 mM ammonium acetate buffer, pH 6.5/95% MeCN. Starting from 5% B, the fraction of B increased to 8% over 23 minutes. […]

[2] = T1 measurement by MR imaging at 4.7 T (Bruker Biospec); conditions: room temperature, pH 7.4 TRIS buffer
Description: Right: relaxivities measured at room temperature at 4.7 T.
MR imaging was performed using a Bruker Biospec 4.7T system. Three samples (˜500 μL) were placed in a homemade sample holder and imaged using a volume coil. Acquisition matrix=64×256 for 0.234×0.312 mm^2 in-plane resolution; slice thickness=5 mm. T1-weighted images were obtained with a fast low angle shot (FLASH) gradient echo sequence: TR/TE/FA=20/5.44/40° with 8 averages. T1 was determined using a 2D rapid acquisition refocused echo (RARE) inversion recovery sequence: TR=3200 ms, TE=9.7 ms. Inversion times (TI): 5, 45, 85, 165, 325, 645, 1285, 1925 and 3205 ms. T1 was obtained from a nonlinear least square fit of the signal intensity (SI(t)) vs. TI curve where T1, SI(0) and a are adjustable parameters, equation S2.
SI(t)=SI(0)[1−α,e^TI/T1] (eq. S2)

[3] = Cyclic voltammetry of the Mn(III)/Mn(II) redox couple
Description: Potentials are vs. K4Fe(CN)6/K3Fe(CN)6; and in (b), a Cottrell plot of the Mn^2+/Mn^3+ couple—ia, (decreasing line) and ic (increasing line) vs. √v, where v=scan rate.
as §1

[4] = UV spectrum as a function of pH (phenol deprotonation pKa); conditions: fit of UV absorbance vs pH
Description: To probe the speciation of the manganese complexes in solution, pH titrations of 1:1 Mn^2+:ligand were performed using a 1 N NaOH under N2 atmosphere (FIG. 21).
To determine the species that exists in these two pH ranges the UV spectrum as a function of pH was monitored (see FIGS. 22-24).

[5] = Stability of manganese complexes in buffers
Description: The stability of the manganese complexes were measured in different buffers using concentrations similar to those found in the blood plasma (1 mM phosphate buffer, 25 mM sodium bicarbonate buffer and 0.1 mM citrate buffer). A solution, 0.5 mM, of the manganese complex was incubated in the respective buffers at 37° C. (pH=7.4) and the species were then quantified on the LC-MS using the method as described earlier. The manganese complexes (0.5 mM) were also treated with EDTA (0.5 mM) in TRIS buffer (pH=7.4) and incubated at 37° C. for 1 hour. The species were then quantified on the LC-MS using the method as described earlier.

T1 relaxivities ([1]; 1.4 T, Tris buffered saline pH 7.4, 37° C.): 2.76 mM⁻¹ s⁻¹
r1 (relaxivity of manganese complexes) ([1]; pH 7.4, 37° C., 1.4 Tesla): 2.76 mM⁻¹ s⁻¹
fold higher relaxivity of reduced Mn^II-HBET form vs Mn^III-HBET [2]: 3.3 fold
reversible oxidation peak ([3]; TRIS buffer pH 7.4, vs. K4Fe(CN)6/K3Fe(CN)6): 0.356 V
Half-cell potential vs. normal hydrogen electrode (NHE) ([3]; pH 7.4, vs. NHE): 379 mV
pKa for ionization of the phenol [4]: 7.64
stability in phosphate and carbonate buffers [5]: stable
SMILES: O=C([O-])CN(CCN(CC(=O)[O-])Cc1ccccc1[O-])CC(=O)[O-].[Mn+2].[Na+].[Na+] [Compound 4, Na2[Mn^IIHBET]]

— patent US20150336996A1, “MANGANESE-BASED MAGNETIC RESONANCE CONTRAST AGENTS” (THE GENERAL HOSPITAL CORPORATION, priority 2013, published 2015)
